According to US20090099237A1, “Methods of treating inflammatory diseases” (Roche Palo Alto LLC, priority 2007, published 2009):
pIC50: −log10 of the molar value. Read-outs that look alike come from different tables or passages of the source.

Assays:
CK1α = biological target: T1, CK1α (Homo sapiens, UniProt P48729); assay: In vitro kinase assay (33P, peptide substrate); assay type: biochemical
T1 construct: purchased Invitrogen

CK1ε = biological target: T2, CK1ε (Homo sapiens, UniProt P49674); assay: In vitro kinase assay (33P, peptide substrate); assay type: biochemical
T2 construct: purchased Invitrogen

CK1γ1 = biological target: T3, CK1γ1 (Homo sapiens, UniProt Q9HCP0); assay: In vitro kinase assay (33P, peptide substrate); assay type: biochemical
T3 construct: purchased Invitrogen

AURKA = biological target: T4, AURKA (Homo sapiens, UniProt O14965); assay: KinomeScan kinase profiling; assay type: binding; details: 10 μM
T4 construct: purchased Ambit Biosciences

CDK5 = biological target: T5, CDK5 (Homo sapiens, UniProt Q00535); assay: KinomeScan kinase profiling; assay type: binding; details: 10 μM
T5 construct: purchased Ambit Biosciences (San Diego, Calif.)

CLK2 = biological target: T6, CLK2 (Homo sapiens, UniProt P49760); assay: KinomeScan kinase profiling; assay type: binding; details: 10 μM
T6 construct: purchased Ambit Biosciences (San Diego, Calif.)

CSNK1E = biological target: T7, CSNK1E (Homo sapiens, UniProt P49674); assay: KinomeScan kinase profiling; assay type: binding; details: 10 μM
T7 construct: purchased Ambit Biosciences (San Diego, Calif.)

DAPK2 = biological target: T8, DAPK2 (Homo sapiens, UniProt Q9UIK4); assay: KinomeScan kinase profiling; assay type: binding; details: 10 μM
T8 construct: purchased Ambit Biosciences (San Diego, Calif.)

FGFR3 = biological target: T9, FGFR3 (Homo sapiens, UniProt P22607); assay: KinomeScan kinase profiling; assay type: binding; details: 10 μM
T9 construct: purchased Ambit Biosciences

JAK2(Kin.Dom2) = biological target: T10, JAK2(Kin.Dom2) (Homo sapiens, UniProt O60674); assay: KinomeScan kinase profiling; assay type: binding; details: 10 μM
T10 construct: JAK2(Kin.Dom2); purchased Ambit Biosciences

LIMK1 = LIMK1 (Homo sapiens, UniProt P53667); assay: KinomeScan kinase profiling; assay type: binding; details: 10 μM
PAK4 = PAK4 (Homo sapiens, UniProt O96013); assay: KinomeScan kinase profiling; assay type: binding; details: 10 μM
PCTK1 = PCTK1 (Homo sapiens, UniProt Q00536); assay: KinomeScan kinase profiling; assay type: binding; details: 10 μM
PHKG1 = PHKG1 (Homo sapiens, UniProt Q16816); assay: KinomeScan kinase profiling; assay type: binding; details: 10 μM
STK4 = biological target: T11, STK4 (Homo sapiens, UniProt Q13043); assay: KinomeScan kinase profiling; assay type: binding; details: 10 μM
T11 construct: purchased Ambit Biosciences

[1] = system: IL-6 production in human umbilical vein endothelial cells (HUVECs); assay: Cytokine-induced IL-6 production assay in HUVEC; assay type: cell-based; details: IL-1β or LPS stimulation for 6 hours, ELISA, FIG. 4
Description: Clonetics® primary human umbilical vein endothelial cells (HUVEC; Lonza Walkersville, Inc., Walkersville, Md.) were cultured according to the manufacturer's instructions in EGM™-2 medium (Lonza) supplemented with EGM-2 SingleQuots (containing fetal bovine serum, hydrocortisone, hFGF, VEGF, hFGF-B, R3-IGF-1, ascorbic acid, hEGF, heparin and gentamicin; Lonza). Where indicated, cells were stimulated with 1 ng/mL IL-1β (R&D Systems, Inc., Minneapolis, Minn.) or 50 ng/mL LPS (Sigma-Aldrich, St. Louis, Mo.) for 6 or 24 hours before cell or supernatant harvest.
Activity of IC261 and Compound A against cytokine-induced inflammation in vitro was determined in human umbilical vein endothelial cells (HUVECs) upon stimulation with either IL-1β or LPS for 6 hours. IL-6 was assessed in supernatants by ELISA according to the manufacturer's instructions (BD Biosciences), and % inhibition calculated based on maximal IL-6 production in each assay.

T7 sequence (P49674 whole entry): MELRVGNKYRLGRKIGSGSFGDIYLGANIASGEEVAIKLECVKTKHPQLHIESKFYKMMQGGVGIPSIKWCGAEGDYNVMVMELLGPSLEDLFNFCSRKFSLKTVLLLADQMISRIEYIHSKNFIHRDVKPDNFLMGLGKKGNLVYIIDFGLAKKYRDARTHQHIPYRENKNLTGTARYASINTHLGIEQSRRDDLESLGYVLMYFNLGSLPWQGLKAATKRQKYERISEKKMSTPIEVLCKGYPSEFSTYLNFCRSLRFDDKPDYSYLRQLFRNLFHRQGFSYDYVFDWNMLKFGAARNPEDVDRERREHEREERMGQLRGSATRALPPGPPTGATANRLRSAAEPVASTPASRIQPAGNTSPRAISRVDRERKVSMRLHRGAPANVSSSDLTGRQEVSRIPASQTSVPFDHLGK
T2 sequence (P49674 whole entry): as above
T11 sequence (Q13043 whole entry): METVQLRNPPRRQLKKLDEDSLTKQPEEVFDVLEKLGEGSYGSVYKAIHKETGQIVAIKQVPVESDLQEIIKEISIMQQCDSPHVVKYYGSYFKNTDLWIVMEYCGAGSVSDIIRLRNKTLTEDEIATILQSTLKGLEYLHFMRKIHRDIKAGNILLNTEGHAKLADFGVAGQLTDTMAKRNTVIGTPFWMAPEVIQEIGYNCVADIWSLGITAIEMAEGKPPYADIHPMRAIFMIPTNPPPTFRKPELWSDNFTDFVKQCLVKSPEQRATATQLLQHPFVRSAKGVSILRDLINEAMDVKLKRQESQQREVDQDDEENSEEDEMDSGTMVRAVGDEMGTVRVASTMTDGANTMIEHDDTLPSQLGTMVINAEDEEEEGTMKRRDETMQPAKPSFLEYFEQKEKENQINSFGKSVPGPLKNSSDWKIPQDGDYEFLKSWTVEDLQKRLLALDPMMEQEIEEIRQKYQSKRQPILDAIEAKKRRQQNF
Sequence of PHKG1 (Q16816 whole entry): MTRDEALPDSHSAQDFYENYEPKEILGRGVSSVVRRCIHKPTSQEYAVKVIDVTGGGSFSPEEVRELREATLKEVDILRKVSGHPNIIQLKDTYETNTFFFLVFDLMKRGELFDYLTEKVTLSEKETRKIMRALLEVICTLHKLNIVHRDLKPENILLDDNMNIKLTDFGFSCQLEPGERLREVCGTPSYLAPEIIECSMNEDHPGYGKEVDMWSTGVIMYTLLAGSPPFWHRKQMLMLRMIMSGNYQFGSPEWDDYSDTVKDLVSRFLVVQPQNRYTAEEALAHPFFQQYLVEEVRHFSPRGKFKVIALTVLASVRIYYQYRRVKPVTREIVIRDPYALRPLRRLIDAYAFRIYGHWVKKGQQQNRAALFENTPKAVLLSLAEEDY
T1 sequence (P48729 whole entry): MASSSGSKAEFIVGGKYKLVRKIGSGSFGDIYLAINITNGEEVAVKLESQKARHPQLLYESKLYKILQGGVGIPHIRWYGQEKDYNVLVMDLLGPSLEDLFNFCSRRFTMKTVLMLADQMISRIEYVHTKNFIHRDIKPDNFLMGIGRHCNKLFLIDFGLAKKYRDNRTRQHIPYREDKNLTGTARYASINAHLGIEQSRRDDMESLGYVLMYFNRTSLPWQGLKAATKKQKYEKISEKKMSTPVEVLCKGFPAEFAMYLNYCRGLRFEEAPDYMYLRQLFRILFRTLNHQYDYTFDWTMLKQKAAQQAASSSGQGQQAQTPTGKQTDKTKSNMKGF
T6 sequence (P49760 whole entry): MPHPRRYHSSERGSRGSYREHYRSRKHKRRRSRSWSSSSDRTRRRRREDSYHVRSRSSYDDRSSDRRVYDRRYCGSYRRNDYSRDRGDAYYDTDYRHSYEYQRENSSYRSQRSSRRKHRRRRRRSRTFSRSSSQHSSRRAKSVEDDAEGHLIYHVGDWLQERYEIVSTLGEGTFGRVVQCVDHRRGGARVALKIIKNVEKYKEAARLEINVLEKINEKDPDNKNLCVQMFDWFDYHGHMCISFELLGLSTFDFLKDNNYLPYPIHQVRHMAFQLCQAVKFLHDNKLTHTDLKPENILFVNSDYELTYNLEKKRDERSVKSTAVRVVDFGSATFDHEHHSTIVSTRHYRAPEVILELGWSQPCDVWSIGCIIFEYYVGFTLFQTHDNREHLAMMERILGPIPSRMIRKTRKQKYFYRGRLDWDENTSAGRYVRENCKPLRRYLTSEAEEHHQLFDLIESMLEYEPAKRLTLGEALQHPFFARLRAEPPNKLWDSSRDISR
T4 sequence (O14965 whole entry): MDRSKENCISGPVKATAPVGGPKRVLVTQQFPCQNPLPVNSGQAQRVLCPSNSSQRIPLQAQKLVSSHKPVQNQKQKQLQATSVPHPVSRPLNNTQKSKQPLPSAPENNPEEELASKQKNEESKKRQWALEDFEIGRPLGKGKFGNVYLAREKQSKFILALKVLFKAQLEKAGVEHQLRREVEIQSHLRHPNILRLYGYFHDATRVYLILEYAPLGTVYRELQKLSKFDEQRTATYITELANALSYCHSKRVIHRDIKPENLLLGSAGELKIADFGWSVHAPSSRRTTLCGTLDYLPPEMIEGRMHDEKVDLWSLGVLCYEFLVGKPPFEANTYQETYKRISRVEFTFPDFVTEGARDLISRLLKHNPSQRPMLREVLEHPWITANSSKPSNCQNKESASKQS
Sequence of PCTK1 (Q00536 whole entry): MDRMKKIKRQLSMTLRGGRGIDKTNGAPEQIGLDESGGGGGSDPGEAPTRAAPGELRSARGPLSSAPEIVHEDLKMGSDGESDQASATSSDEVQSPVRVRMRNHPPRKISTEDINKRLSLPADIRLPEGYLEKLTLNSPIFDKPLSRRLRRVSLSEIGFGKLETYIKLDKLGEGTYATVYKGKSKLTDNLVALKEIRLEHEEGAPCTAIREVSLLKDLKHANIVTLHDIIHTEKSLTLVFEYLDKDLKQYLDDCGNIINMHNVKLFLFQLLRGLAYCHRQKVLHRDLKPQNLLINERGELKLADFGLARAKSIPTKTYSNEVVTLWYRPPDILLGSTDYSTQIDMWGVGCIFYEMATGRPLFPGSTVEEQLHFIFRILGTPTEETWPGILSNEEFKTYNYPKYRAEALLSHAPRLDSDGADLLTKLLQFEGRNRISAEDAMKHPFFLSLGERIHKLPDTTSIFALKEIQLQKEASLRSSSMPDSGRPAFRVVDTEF
Sequence of LIMK1 (P53667 whole entry): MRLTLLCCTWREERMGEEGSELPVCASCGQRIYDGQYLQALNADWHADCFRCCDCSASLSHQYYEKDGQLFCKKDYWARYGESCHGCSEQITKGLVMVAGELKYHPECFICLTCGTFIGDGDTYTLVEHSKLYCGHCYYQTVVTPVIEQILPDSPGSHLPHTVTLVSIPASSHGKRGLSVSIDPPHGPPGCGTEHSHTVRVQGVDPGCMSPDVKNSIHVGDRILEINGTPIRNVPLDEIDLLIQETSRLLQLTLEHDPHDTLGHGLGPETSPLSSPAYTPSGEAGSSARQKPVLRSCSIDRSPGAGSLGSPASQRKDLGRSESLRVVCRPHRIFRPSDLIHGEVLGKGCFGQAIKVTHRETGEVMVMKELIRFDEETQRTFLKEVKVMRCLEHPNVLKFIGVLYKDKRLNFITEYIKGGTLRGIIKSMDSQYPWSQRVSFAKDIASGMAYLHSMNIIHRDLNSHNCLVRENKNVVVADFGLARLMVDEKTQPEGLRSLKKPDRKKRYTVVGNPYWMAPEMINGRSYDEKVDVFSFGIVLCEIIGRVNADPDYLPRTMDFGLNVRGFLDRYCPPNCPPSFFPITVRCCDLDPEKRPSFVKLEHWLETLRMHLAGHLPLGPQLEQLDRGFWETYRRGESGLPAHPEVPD
T9 sequence (P22607 23-806): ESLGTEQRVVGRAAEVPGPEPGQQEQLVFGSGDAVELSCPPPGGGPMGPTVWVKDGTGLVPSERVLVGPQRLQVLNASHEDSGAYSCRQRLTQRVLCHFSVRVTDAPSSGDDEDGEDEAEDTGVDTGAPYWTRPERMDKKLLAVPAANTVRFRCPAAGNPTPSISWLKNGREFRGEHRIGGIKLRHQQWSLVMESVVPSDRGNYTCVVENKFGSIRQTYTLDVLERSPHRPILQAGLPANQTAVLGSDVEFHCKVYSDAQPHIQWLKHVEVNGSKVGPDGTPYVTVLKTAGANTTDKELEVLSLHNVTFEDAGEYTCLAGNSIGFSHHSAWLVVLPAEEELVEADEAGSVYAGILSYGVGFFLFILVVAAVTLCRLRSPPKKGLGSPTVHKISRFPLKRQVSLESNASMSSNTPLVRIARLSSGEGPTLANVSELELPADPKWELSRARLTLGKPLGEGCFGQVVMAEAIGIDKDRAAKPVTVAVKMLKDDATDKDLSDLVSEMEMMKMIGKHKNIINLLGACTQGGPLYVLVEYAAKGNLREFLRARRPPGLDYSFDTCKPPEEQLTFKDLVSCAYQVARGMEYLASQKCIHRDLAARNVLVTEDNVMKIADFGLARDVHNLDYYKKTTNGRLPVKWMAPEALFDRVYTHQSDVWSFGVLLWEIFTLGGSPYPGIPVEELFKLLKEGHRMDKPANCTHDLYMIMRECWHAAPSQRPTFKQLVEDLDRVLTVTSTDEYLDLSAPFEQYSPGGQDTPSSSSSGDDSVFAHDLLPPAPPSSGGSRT
T10 sequence (O60674 849-1124 limits assumed): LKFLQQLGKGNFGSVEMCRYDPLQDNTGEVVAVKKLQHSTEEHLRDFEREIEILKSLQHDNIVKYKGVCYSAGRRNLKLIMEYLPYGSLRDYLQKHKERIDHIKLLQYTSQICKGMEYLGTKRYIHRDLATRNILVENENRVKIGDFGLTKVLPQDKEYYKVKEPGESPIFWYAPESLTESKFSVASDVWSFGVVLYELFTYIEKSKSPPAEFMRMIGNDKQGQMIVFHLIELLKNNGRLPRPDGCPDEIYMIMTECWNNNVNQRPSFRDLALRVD

pIC50 (CK1α; CK1α, 50 μM ATP, read-out: IC50) | pIC50 (CK1ε; CK1ε, 50 μM ATP, read-out: IC50) | pIC50 (CK1γ1; CK1γ1, 50 μM ATP, read-out: IC50) | SMILES | % Binding (AURKA) | % Binding (CDK5) | % Binding (CLK2) | % Binding (CSNK1E) | % Binding (DAPK2) | % Binding (FGFR3) | % Binding (JAK2(Kin.Dom2)) | % Binding (LIMK1) | % Binding (PAK4) | % Binding (PCTK1) | % Binding (PHKG1) | % Binding (STK4) | inhibition of IL-1β or LPS-induced IL-6 production [1] | pIC50 (CK1α) | pIC50 (CK1ε) | pIC50 (CK1γ1)
5.92 | 4.76 | < 4.00 | NC(=O)c1cc(-c2ccncc2)c[nH]1 [Compound A, 4-Pyridin-4-yl-1H-pyrrole-2-carboxylic acid amide] | <50% | <50% | <50% | 94% | <50% | <50% | <50% | <50% | <50% | <50% | <50% | <50% | inhibition |  |  | 
 |  |  | COc1cc(OC)c(C=C2C(O)=Nc3ccccc32)c(OC)c1 [IC261, 3-[(2,4,6-trimethoxyphenyl)methylidenyl]-indolin-2-one] | <50% | <50% | <50% | 100% | <50% | <50% | <50% | <50% | <50% | <50% | <50% | <50% | inhibition | 5.21 | 5.22 | < 4.00
